Data reported in ChEMBL document CHEMBL5303767, “Data for DCP probe JNJ-4355” (2023).
Activity calls are given as the source filed them. No cut-off for these calls is given here.

Key:
[1] = target: Histamine H3 receptor (Homo sapiens) (UniProt Q9Y5N1); details: Compound concentration 10.0 uM
[2] = target: Alpha-2C adrenergic receptor (Homo sapiens) (UniProt P18825); details: Compound concentration 10.0 uM
[3] = target: Sigma non-opioid intracellular receptor 1 (Homo sapiens) (UniProt Q99720); details: Compound concentration 10.0 uM
KMS-12-PE [4] = experiment: (§1) KMS-12-PE cell line Proliferation assay; format: functional, Homo sapiens
[5] = target: Histamine H1 receptor (Homo sapiens) (UniProt P35367); details: Compound concentration 10.0 uM
[6] = target: 5-hydroxytryptamine receptor 3A (Homo sapiens) (UniProt P46098); details: Compound concentration 10.0 uM
[7] = target: T1, Induced myeloid leukemia cell differentiation protein Mcl-1 (Homo sapiens, UniProt Q07820); experiment: Caspase Glo MOLP-8 assay; format: functional, cell-based, MOLP8
MOLM-13 = experiment: MOLM-13 cell line Proliferation assay; format: functional, Homo sapiens
[8] = target: Alpha-1D adrenergic receptor (Homo sapiens) (UniProt P25100); details: Compound concentration 10.0 uM
MOLP-8 = experiment: MOLP8 cell line Proliferation assay; format: functional, Homo sapiens
MV4-11 = experiment: MV4-11 cell line Proliferation assay; format: functional, Homo sapiens
[9] = target: D(1B) dopamine receptor (Homo sapiens) (UniProt P21918); details: Compound concentration 10.0 uM
[10] = target: T2, Delta-type opioid receptor (Homo sapiens, UniProt P41143); experiment: GPCRScan assay: inhibition of DOR; set-up: radioligand conc. used [nm] 1.0 – 2.0, parental cells stable HEK
THP-1 = experiment: THP-1 cell line Proliferation assay; format: functional, Homo sapiens
[11] = target: 5-hydroxytryptamine receptor 1A (Homo sapiens) (UniProt P08908); details: Compound concentration 10.0 uM
KMS-12-PE [12] = experiment: as §1; format: functional, Homo sapiens; remark: listed apart in the source
[13] = target: T3, Sodium-dependent dopamine transporter (Homo sapiens, UniProt Q01959); details: Compound concentration 10.0 uM
[14] = target: T1, Induced myeloid leukemia cell differentiation protein Mcl-1; experiment: HTRF (MCL1)
[15] = target: Alpha-2B adrenergic receptor (Homo sapiens) (UniProt P18089); details: Compound concentration 10.0 uM
[16] = target: Apoptosis regulator Bcl-2 (Homo sapiens, UniProt P10415); experiment: HTRF (BCL2); format: functional
[17] = target: Muscarinic acetylcholine receptor M2 (Homo sapiens) (UniProt P08172); details: Compound concentration 10.0 uM
NOMO-1 = experiment: NOMO-1 cell line Proliferation assay; format: functional, Homo sapiens
Bcl-2-like protein 1 = Bcl-2-like protein 1 (Homo sapiens, UniProt Q07817); experiment: HTRF (BCL2L1)
[18] = target: Muscarinic acetylcholine receptor M5 (Homo sapiens) (UniProt P08912); details: Compound concentration 10.0 uM
Rattus norvegicus = organism: Rattus norvegicus; details: Compound concentration 10.0 uM
[19] = target: 5-hydroxytryptamine receptor 7 (Homo sapiens) (UniProt P34969); details: Compound concentration 10.0 uM
[20] = target: 5-hydroxytryptamine receptor 1B (Homo sapiens) (UniProt P28222); details: Compound concentration 10.0 uM
[21] = target: D(2) dopamine receptor (Homo sapiens) (UniProt P14416); details: Compound concentration 10.0 uM
OCI-AML2 = experiment: OCI-AML-2 cell line Proliferation assay; format: functional, Homo sapiens
[22] = target: Beta-2 adrenergic receptor (Homo sapiens) (UniProt P07550); details: Compound concentration 10.0 uM
[23] = target: T2, Delta-type opioid receptor; details: Compound concentration 10.0 uM
Bcl-2-related protein A1 = Bcl-2-related protein A1 (Homo sapiens, UniProt Q16548); experiment: HTRF (BCL2A1)
SUD4 = experiment: SU-DHL-4 cell line Proliferation assay; format: functional, Homo sapiens
KMS-12-PE [24] = experiment: KMS-12-PE MCL-1 KO cell line Proliferation assay; format: functional, Homo sapiens
[25] = target: Kappa-type opioid receptor (Homo sapiens) (UniProt P41145); details: Compound concentration 10.0 uM
KMS-12-PE [26] = experiment: KMS-12-PE Bax/Bak dKO cell line Proliferation assay; format: functional, Homo sapiens
[27] = target: Muscarinic acetylcholine receptor M1 (Homo sapiens) (UniProt P11229); details: Compound concentration 10.0 uM
[28] = target: Alpha-2A adrenergic receptor (Homo sapiens) (UniProt P08913); details: Compound concentration 10.0 uM
[29] = target: D(3) dopamine receptor (Homo sapiens) (UniProt P35462); details: Compound concentration 10.0 uM
[30] = target: 5-hydroxytryptamine receptor 2A (Homo sapiens) (UniProt P28223); details: Compound concentration 10.0 uM
[31] = target: Beta-3 adrenergic receptor (Homo sapiens) (UniProt P13945); details: Compound concentration 10.0 uM
[32] = target: Muscarinic acetylcholine receptor M3 (Homo sapiens) (UniProt P20309); details: Compound concentration 10.0 uM
[33] = target: Alpha-1B adrenergic receptor (Homo sapiens) (UniProt P35368); details: Compound concentration 10.0 uM
[34] = target: Sigma intracellular receptor 2 (Homo sapiens) (UniProt Q5BJF2); details: Compound concentration 10.0 uM
EOL1 = experiment: EOL-1 cell line Proliferation assay; format: functional, Homo sapiens
Mu-type opioid receptor [35] = target: T4, Mu-type opioid receptor (Homo sapiens, UniProt P35372); experiment: GPCRScan assay: inhibition of MOR; set-up: radioligand conc. used [nm] 1.0 – 2.0, parental cells stable HEK
[36] = target: T5, 5-hydroxytryptamine receptor 5A (Homo sapiens, UniProt P47898); details: Compound concentration 10.0 uM
[37] = target: 5-hydroxytryptamine receptor 2B (Homo sapiens) (UniProt P41595); details: Compound concentration 10.0 uM
[38] = target: Sodium-dependent serotonin transporter (Homo sapiens) (UniProt P31645); details: Compound concentration 10.0 uM
[39] = target: Histamine H2 receptor (Homo sapiens) (UniProt P25021); details: Compound concentration 10.0 uM
[40] = target: 5-hydroxytryptamine receptor 1D (Homo sapiens) (UniProt P28221); details: Compound concentration 10.0 uM
[41] = target: T6, Sodium-dependent noradrenaline transporter (Homo sapiens, UniProt P23975); details: Compound concentration 10.0 uM
Mino = experiment: MINO cell line Proliferation assay; format: functional, Homo sapiens
[42] = target: D(1A) dopamine receptor (Homo sapiens) (UniProt P21728); details: Compound concentration 10.0 uM
[43] = target: D(4) dopamine receptor (Homo sapiens) (UniProt P21917); details: Compound concentration 10.0 uM
[44] = target: 5-hydroxytryptamine receptor 2C (Homo sapiens) (UniProt P28335); details: Compound concentration 10.0 uM
[45] = target: T3, Sodium-dependent dopamine transporter; experiment: GPCRScan assay: inhibition of DAT; set-up: radioligand conc. used [nm] 3.6 – 16.0, parental cells stable HEK
[46] = target: Muscarinic acetylcholine receptor M4 (Homo sapiens) (UniProt P08173); details: Compound concentration 10.0 uM
[47] = target: T6, Sodium-dependent noradrenaline transporter; experiment: GPCRScan assay: inhibition of NET; set-up: radioligand conc. used [nm] 1.3 – 5.0, parental cells stable HEK
[48] = target: Beta-1 adrenergic receptor (Homo sapiens) (UniProt P08588); details: Compound concentration 10.0 uM
[49] = target: T5, 5-hydroxytryptamine receptor 5A; experiment: GPCRScan assay: inhibition of 5-HT5A; set-up: radioligand conc. used [nm] 2.0 - 3.3, parental cells Flp-In CHO
[50] = target: Alpha-1A adrenergic receptor (Homo sapiens) (UniProt P35348); details: Compound concentration 10.0 uM
Mu-type opioid receptor [51] = target: T4, Mu-type opioid receptor; details: Compound concentration 10.0 uM
[52] = target: 5-hydroxytryptamine receptor 1A (Homo sapiens, UniProt P08908); experiment: GPCRScan assay: inhibition of 5-HT1A; set-up: radioligand conc. used [nm] 0.5 – 1.0, parental cells stable CHO

Sequence of Beta-3 adrenergic receptor (Homo sapiens) (P13945 whole entry, looked up): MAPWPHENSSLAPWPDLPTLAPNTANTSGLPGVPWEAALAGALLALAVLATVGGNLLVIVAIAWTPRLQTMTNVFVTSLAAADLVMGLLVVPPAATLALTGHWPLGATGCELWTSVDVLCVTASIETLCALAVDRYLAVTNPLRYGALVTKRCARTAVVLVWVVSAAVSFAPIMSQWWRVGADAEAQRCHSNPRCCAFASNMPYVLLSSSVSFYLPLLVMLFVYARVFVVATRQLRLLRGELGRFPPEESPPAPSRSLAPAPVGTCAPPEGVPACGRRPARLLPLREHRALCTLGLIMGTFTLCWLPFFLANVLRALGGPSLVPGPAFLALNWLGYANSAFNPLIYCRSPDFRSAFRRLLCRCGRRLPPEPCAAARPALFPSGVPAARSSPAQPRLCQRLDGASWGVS
Sequence of D(1A) dopamine receptor (Homo sapiens) (P21728 whole entry): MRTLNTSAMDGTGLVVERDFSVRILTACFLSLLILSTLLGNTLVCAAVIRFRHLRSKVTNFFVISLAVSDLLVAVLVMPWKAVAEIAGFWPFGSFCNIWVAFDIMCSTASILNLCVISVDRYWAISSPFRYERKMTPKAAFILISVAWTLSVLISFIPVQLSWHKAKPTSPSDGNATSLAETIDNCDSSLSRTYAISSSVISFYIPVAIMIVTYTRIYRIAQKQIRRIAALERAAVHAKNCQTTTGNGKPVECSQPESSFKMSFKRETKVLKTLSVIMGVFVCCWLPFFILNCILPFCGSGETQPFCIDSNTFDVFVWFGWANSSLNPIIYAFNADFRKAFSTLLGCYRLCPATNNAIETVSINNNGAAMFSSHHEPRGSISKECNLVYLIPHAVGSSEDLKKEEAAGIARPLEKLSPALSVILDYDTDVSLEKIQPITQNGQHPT
Sequence of 5-hydroxytryptamine receptor 2C (Homo sapiens) (P28335 whole entry): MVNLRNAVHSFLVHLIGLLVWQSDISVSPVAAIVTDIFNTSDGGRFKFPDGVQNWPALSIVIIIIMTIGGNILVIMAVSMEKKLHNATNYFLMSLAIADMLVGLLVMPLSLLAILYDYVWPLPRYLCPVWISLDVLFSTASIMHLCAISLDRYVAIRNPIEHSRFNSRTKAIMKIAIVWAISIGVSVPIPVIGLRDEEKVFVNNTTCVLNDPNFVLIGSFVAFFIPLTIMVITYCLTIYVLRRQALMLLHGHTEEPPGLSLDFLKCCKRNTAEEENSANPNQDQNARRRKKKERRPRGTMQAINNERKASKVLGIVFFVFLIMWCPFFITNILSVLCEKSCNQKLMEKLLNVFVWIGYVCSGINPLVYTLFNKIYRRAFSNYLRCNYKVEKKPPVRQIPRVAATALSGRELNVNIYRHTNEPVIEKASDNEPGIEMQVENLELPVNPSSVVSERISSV
Sequence of Muscarinic acetylcholine receptor M1 (Homo sapiens) (P11229 whole entry): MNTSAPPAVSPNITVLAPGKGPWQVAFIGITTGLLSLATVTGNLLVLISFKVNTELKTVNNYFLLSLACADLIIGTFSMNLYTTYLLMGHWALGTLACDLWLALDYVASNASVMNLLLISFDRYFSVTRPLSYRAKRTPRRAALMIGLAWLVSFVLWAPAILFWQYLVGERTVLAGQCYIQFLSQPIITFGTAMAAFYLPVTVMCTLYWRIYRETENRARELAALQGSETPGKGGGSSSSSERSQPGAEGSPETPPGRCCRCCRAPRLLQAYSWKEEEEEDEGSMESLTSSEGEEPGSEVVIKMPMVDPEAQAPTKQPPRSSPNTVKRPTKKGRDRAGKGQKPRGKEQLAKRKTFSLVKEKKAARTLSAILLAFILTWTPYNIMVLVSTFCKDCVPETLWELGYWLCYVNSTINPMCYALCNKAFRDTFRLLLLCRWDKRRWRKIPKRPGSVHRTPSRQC
Sequence of 5-hydroxytryptamine receptor 3A (Homo sapiens) (P46098 whole entry): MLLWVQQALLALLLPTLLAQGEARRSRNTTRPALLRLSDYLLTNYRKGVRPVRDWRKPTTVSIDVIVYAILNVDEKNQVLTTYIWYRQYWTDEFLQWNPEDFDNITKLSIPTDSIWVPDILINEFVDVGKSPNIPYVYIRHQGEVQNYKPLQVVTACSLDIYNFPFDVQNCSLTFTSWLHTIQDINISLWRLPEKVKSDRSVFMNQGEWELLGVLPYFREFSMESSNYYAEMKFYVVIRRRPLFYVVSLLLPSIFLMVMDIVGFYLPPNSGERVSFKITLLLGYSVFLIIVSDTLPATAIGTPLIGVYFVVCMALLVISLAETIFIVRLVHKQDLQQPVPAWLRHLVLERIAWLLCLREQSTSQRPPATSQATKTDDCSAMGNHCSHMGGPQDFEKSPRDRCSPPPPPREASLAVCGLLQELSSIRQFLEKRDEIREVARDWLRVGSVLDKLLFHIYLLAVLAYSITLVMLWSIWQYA
T1 sequence (Q07820 whole entry): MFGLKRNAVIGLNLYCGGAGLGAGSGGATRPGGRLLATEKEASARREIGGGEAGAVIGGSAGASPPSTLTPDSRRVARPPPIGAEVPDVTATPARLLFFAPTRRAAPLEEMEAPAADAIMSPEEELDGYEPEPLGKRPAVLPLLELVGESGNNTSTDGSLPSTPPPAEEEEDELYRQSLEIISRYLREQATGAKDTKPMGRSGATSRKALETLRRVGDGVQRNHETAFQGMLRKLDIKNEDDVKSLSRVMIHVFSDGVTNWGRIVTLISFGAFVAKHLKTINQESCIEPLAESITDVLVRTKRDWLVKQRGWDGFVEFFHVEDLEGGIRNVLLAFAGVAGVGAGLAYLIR
Sequence of Sigma non-opioid intracellular receptor 1 (Homo sapiens) (Q99720 whole entry): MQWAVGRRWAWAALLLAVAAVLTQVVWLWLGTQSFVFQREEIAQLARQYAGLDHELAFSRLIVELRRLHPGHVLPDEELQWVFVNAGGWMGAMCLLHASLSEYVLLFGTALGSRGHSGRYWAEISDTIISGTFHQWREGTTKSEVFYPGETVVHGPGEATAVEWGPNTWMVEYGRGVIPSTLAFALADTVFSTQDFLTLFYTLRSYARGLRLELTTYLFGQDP
Sequence of 5-hydroxytryptamine receptor 2A (Homo sapiens) (P28223 whole entry): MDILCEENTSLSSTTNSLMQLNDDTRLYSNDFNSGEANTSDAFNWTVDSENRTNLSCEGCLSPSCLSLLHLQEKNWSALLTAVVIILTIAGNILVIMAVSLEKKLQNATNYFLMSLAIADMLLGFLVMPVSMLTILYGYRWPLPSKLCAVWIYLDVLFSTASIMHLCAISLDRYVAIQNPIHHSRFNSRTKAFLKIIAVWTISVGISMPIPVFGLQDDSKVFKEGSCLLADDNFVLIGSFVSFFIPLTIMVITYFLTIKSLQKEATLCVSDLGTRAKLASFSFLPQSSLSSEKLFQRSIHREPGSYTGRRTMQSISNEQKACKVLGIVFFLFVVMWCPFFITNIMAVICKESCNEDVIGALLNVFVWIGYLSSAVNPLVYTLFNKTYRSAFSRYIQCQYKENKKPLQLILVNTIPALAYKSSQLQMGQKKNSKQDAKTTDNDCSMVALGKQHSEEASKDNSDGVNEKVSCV
Sequence of Muscarinic acetylcholine receptor M5 (Homo sapiens) (P08912 whole entry): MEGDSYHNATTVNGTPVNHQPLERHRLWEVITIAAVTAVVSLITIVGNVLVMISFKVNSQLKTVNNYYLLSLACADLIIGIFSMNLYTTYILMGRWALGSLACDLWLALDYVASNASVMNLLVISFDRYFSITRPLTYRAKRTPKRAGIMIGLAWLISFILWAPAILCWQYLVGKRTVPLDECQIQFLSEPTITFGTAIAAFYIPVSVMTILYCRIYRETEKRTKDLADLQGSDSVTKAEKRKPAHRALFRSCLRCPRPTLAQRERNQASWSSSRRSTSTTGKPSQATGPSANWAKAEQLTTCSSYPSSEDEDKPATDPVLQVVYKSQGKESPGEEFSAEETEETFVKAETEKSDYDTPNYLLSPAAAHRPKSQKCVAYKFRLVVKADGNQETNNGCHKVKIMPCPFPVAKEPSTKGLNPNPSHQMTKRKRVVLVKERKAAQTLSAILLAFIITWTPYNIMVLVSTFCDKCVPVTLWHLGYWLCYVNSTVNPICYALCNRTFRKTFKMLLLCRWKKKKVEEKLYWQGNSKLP
Sequence of Histamine H2 receptor (Homo sapiens) (P25021 whole entry): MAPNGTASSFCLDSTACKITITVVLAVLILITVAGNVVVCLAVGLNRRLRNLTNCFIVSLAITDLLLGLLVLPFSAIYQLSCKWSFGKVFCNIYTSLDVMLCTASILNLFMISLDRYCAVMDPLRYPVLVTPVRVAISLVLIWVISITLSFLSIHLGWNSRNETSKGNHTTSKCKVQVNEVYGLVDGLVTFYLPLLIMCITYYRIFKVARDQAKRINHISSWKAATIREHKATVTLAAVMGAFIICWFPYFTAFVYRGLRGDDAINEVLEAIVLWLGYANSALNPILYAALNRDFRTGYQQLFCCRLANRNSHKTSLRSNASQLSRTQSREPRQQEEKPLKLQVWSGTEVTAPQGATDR
Sequence of Kappa-type opioid receptor (Homo sapiens) (P41145 whole entry): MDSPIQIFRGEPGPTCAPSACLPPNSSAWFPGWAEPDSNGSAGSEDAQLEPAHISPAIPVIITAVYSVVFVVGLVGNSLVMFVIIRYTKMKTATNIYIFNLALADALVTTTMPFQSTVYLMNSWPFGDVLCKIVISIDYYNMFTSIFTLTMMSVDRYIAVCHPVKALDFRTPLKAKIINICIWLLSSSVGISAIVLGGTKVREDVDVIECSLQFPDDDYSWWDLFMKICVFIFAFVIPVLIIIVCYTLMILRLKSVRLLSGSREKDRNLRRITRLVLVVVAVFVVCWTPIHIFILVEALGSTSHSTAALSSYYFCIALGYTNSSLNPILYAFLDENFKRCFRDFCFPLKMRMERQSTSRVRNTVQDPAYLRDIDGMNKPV
Sequence of Sigma intracellular receptor 2 (Homo sapiens) (Q5BJF2 whole entry): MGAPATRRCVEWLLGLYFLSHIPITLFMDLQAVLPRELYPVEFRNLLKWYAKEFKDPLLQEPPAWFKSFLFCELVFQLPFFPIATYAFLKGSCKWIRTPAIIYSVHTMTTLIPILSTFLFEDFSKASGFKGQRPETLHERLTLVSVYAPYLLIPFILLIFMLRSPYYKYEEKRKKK
Sequence of Bcl-2-related protein A1 (Q16548 whole entry): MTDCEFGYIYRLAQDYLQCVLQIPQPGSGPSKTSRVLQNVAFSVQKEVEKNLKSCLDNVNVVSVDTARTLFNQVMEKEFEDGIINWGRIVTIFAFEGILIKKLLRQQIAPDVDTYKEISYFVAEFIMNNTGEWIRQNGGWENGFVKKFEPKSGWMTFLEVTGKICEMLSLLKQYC

## COCCOCCn1nc2c(c1C)-c1c(Cl)ccc3c1c(C)c(C(=O)O)n3CCCOc1cc(cc3c(F)c(Cl)ccc13)CCc1cc(nn1C)CSC2
[1]
  inhibition: 4.96%
[2]
  inhibition: 3.84%
[3]
  inhibition: 20.6%
KMS-12-PE [4]
  Cell Proliferation AC50: 79 nM
[5]
  inhibition: -0.28%
[6]
  inhibition: 6.57%
[7]
  AC50: 12 nM (active)
MOLM-13
  Cell Proliferation AC50: 10 nM
[8]
  inhibition: 2.28%
MOLP-8
  Cell Proliferation AC50: 8.7 nM
MV4-11
  Cell Proliferation AC50: 14 nM
[9]
  inhibition: 26.2%
[10]; read-out: Ki
  Ki: 871 nM
[10]; read-out: pKi (converted)
  Ki: 724 nM
THP-1
  Cell Proliferation AC50: 27 nM
[11]
  inhibition: 47.8%
KMS-12-PE [12]
  Cell Proliferation AC50: 69 nM
[13]
  inhibition: 49.5%
[14]
  Ki: 0.015 nM (active)
[15]
  inhibition: 6.6%
[16]
  Ki: > 3750 nM (not active)
[17]
  inhibition: -0.94%
NOMO-1
  Cell Proliferation AC50: 4.8 nM
Bcl-2-like protein 1
  Ki: > 5000 nM (not active)
[18]
  inhibition: -9.51%
Rattus norvegicus
  inhibition: 18.7%
[19]
  inhibition: 20.1%
[20]
  inhibition: 9.97%
[21]
  inhibition: -6.66%
OCI-AML2
  Cell Proliferation AC50: 48 nM
[22]
  inhibition: 4.71%
[23]
  inhibition: 61.9%
Bcl-2-related protein A1
  Ki: > 5000 nM (not active)
SUD4
  Cell Proliferation AC50: 21 nM
KMS-12-PE [24]
  Cell Proliferation AC50: >30000 nM
[25]
  inhibition: 0.68%
KMS-12-PE [26]
  Cell Proliferation AC50: >30000 nM
[27]
  inhibition: 4.67%
[28]
  inhibition: 21.5%
[29]
  inhibition: 13.5%
[30]
  inhibition: -0.64%
[31]
  inhibition: 24.5%
[32]
  inhibition: -0.43%
[33]
  inhibition: -1.94%
[34]
  inhibition: 17.4%
EOL1
  Cell Proliferation AC50: 2.1 nM
Mu-type opioid receptor [35]
  Ki: > 10000 nM
  pKi: < 5
[36]
  inhibition: 28.5%
[37]
  inhibition: -1.5%
[38]
  inhibition: 11.2%
[39]
  inhibition: 13.1%
[40]
  inhibition: -6.42%
[41]
  inhibition: 30.1%
Mino
  Cell Proliferation AC50: 73 nM
[42]
  inhibition: 10.4%
[43]
  inhibition: 2.7%
[44]
  inhibition: 1.66%

## COCCOCCn1nc(C)c2c1CSCc1cc(n(C)n1)CCc1cc(c3ccc(F)cc3c1)OCCCn1c(C(=O)O)c(C)c3c-2c(Cl)ccc31
[1]
  inhibition: -6.18%
[2]
  inhibition: 7%
[45]; read-out: Ki
  Ki: 3720 nM
[45]; read-out: pKi (converted)
  Ki: 3550 nM
[3]
  inhibition: 30.7%
[5]
  inhibition: 10.8%
[6]
  inhibition: 8.89%
[7]
  AC50: > 30000 nM (not active)
[8]
  inhibition: 1.09%
[46]
  inhibition: -9.96%
[9]
  inhibition: 51.7%
[10]; read-out: Ki
  Ki: 3230 nM
[10]; read-out: pKi (converted)
  Ki: 2630 nM
[11]
  inhibition: 76.5%
[13]
  inhibition: 57.7%
[14]
  Ki: 115 nM (not active)
[15]
  inhibition: 29.5%
[17]
  inhibition: 4.4%
[18]
  inhibition: 2.15%
Rattus norvegicus
  inhibition: 11.8%
[19]
  inhibition: 19%
[20]
  inhibition: 26%
[21]
  inhibition: -6.49%
[47]; read-out: Ki
  Ki: 2880 nM
[47]; read-out: pKi (converted)
  Ki: 2750 nM
[48]
  inhibition: -3.32%
[22]
  inhibition: -3.65%
[23]
  inhibition: 78%
[25]
  inhibition: 36.6%
[49]; read-out: Ki
  Ki: 2470 nM
[49]; read-out: pKi (converted)
  Ki: 2450 nM
[27]
  inhibition: 1.89%
[28]
  inhibition: 6.61%
[29]
  inhibition: 18.2%
[30]
  inhibition: 10.6%
[31]
  inhibition: 14.2%
[32]
  inhibition: -1.43%
[33]
  inhibition: -0.92%
[50]
  inhibition: -4.41%
[34]
  inhibition: 23.4%
Mu-type opioid receptor [51]
  inhibition: 10.4%
[36]
  inhibition: 54.5%
[37]
  inhibition: 6.21%
[38]
  inhibition: 11.4%
[39]
  inhibition: 11.6%
[40]
  inhibition: 31.4%
[41]
  inhibition: 58.9%
[42]
  inhibition: 34.7%
[52]; read-out: Ki
  Ki: 1700 nM
[52]; read-out: pKi (converted)
  Ki: 1580 nM
[43]
  inhibition: 3.35%
[44]
  inhibition: 7.75%
